Where a SMILES comes first, the peptide text is derived from it. Bridges are numbered along the chain shown (N, C = ends). [ ]: non-standard residue; d: D form. hArg = N=C(N)NCCCC[C@H](N)C(=O)O; Mpa = O=C(O)CCS
Columns and labels:
[1] = test system: Hepatotoxicity;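 as to HepSE bilirubinemia: bilirubinemia hepatic side effect score drawn from the DILIps training data, a prediction system for drug-induced liver injury; call rule not given here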;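 as to HepSE cholecystitis: Cholecystitis-related hepatic side effect score drawn from the DILIps (drug-induced liver injury prediction) training data set; call rule not given here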;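 as to HepSE cholelithiasis: hepatic side effect score for cholelithiasis, drawn from the DILIps training data for predicting drug-induced liver injury; call rule not given here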;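 as to HepSE cirrhosis: cirrhosis hepatic side effect score taken from the DILIps (drug-induced liver injury prediction) training set; call rule not given here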;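 as to HepSE elevated liver function tests: hepatic side effect score for raised liver function tests, as recorded in the DILIps training set used for predicting drug-induced liver injury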; as to HepSE hepatic failure: call rule not given here;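 as to HepSE hepatomegaly: hepatic side effect score for hepatomegaly, taken from the training set of the DILIps drug-induced liver injury prediction system; call rule not given here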
[2] = test system: Hepatotoxicity; remark: listed apart in the source;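 as to HepSE bilirubinemia: bilirubinemia hepatic side effect score drawn from the DILIps training data, a prediction system for drug-induced liver injury; call rule not given here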;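 as to HepSE cholecystitis: Cholecystitis-related hepatic side effect score drawn from the DILIps (drug-induced liver injury prediction) training data set; call rule not given here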;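 as to HepSE cholelithiasis: hepatic side effect score for cholelithiasis, drawn from the DILIps training data for predicting drug-induced liver injury; call rule not given here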;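 as to HepSE cirrhosis: cirrhosis hepatic side effect score taken from the DILIps (drug-induced liver injury prediction) training set; call rule not given here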;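 as to HepSE elevated liver function tests: hepatic side effect score for raised liver function tests, as recorded in the DILIps training set used for predicting drug-induced liver injury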; as to HepSE hepatic failure: call rule not given here
[3] = test system: Hepatotoxicity; remark: listed apart in the source;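 as to HepSE bilirubinemia: bilirubinemia hepatic side effect score drawn from the DILIps training data, a prediction system for drug-induced liver injury; call rule not given here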;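 as to HepSE cholecystitis: Cholecystitis-related hepatic side effect score drawn from the DILIps (drug-induced liver injury prediction) training data set; call rule not given here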;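 as to HepSE cholelithiasis: hepatic side effect score for cholelithiasis, drawn from the DILIps training data for predicting drug-induced liver injury; call rule not given here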;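 as to HepSE cirrhosis: cirrhosis hepatic side effect score taken from the DILIps (drug-induced liver injury prediction) training set; call rule not given here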;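 as to HepSE elevated liver function tests: hepatic side effect score for raised liver function tests, as recorded in the DILIps training set used for predicting drug-induced liver injury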; as to HepSE hepatic failure: call rule not given here
[4] = test system: Hepatotoxicity; remark: listed apart in the source;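 as to HepSE bilirubinemia: bilirubinemia hepatic side effect score drawn from the DILIps training data, a prediction system for drug-induced liver injury; call rule not given here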;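 as to HepSE cholecystitis: Cholecystitis-related hepatic side effect score drawn from the DILIps (drug-induced liver injury prediction) training data set; call rule not given here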;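 as to HepSE cholelithiasis: hepatic side effect score for cholelithiasis, drawn from the DILIps training data for predicting drug-induced liver injury; call rule not given here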;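 as to HepSE cirrhosis: cirrhosis hepatic side effect score taken from the DILIps (drug-induced liver injury prediction) training set; call rule not given here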;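 as to HepSE elevated liver function tests: hepatic side effect score for raised liver function tests, as recorded in the DILIps training set used for predicting drug-induced liver injury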; as to HepSE hepatic failure: call rule not given here
[5] = test system: Hepatotoxicity; remark: listed apart in the source; as to HepSE hepatic failure: call rule not given here
[6] = test system: Hepatotoxicity; remark: listed apart in the source; as to HepSE hepatic failure: call rule not given here
[7] = test system: Hepatotoxicity; remark: listed apart in the source
[8] = test system: Hepatotoxicity; remark: listed apart in the source
[9] = test system: Hepatotoxicity; remark: listed apart in the source
[10] = test system: Hepatotoxicity; remark: listed apart in the source
[11] = test system: Hepatotoxicity; remark: listed apart in the source
[12] = test system: Hepatotoxicity; remark: listed apart in the source
[13] = test system: Hepatotoxicity; remark: listed apart in the source
[14] = test system: Hepatotoxicity; remark: listed apart in the source

Row | Compound | HepSE_bilirubinemia [1] | HepSE_cholecystitis [2] | HepSE_cholelithiasis [3] | HepSE_cirrhosis [4] | HepSE_elevated liver function tests [5] | HepSE_hepatic failure [6] | HepSE_hepatic necrosis [7] | HepSE_hepatitis [8] | HepSE_hepatomegaly [9] | HepSE_jaundice [10] | HepSE_liver disease [11] | HepSE_liver fatty [12] | HepSE_liver function tests abnormal [13] | HepSE_Combined Scores [14] | further results
1 | N=C(N)NCCCC[C@@H]1NC(=O)CCSSC[C@@H](C(N)=O)NC(=O)[C@@H]2CCCN2C(=O)[C@H](Cc2c[nH]c3ccccc23)NC(=O)[C@H](CC(=O)O)NC(=O)CNC1=O [EPTIFIBATIDE] ([Mpa][hArg]GDWPC-NH2; disulfide 1-7) | 0 | 0 | 0 | 0 | 0 | 0 | 0 | 0 | 0 | 0 | 0 | 0 | 0 | 0 | 
2 | CN1C[C@H](C(=O)N[C@]2(C)O[C@@]3(O)[C@@H]4CCCN4C(=O)[C@H](Cc4ccccc4)N3C2=O)C=C2c3cccc4[nH]cc(c34)C[C@H]21 [ERGOTAMINE] | 0 | 0 | 0 | 0 | 0 | 0 | 0 | 0 | 0 | 0 | 0 | 0 | 0 | 0 | 
3 | C#Cc1cccc(Nc2ncnc3cc(OCCOC)c(OCCOC)cc23)c1 [ERLOTINIB] | 0 | 0 | 0 | 0 | 0 | 1 | 0 | 0 | 0 | 0 | 1 | 0 | 0 | 2 | 
4 | CC[C@H]1OC(=O)[C@H](C)[C@@H](O[C@H]2C[C@@](C)(OC)[C@@H](O)[C@H](C)O2)[C@H](C)[C@@H](O[C@@H]2O[C@H](C)C[C@H](N(C)C)[C@H]2O)[C@](C)(O)C[C@@H](C)C(=O)[C@H](C)[C@@H](O)[C@]1(C)O [ERYTHROMYCIN] | 0 | 0 | 0 | 0 | 0 | 0 | 0 | 1 | 0 | 0 | 0 | 0 | 0 | 1 | 
5 | COC(=O)CCc1ccc(OCC(O)CNC(C)C)cc1 (configuration not stated) [ESMOLOL] | 0 | 0 | 0 | 0 | 0 | 0 | 0 | 0 | 0 | 0 | 0 | 0 | 0 | 0 | 
6 | Clc1ccc2c(c1)C(c1ccccc1)=NCc1nncn1-2 [ESTAZOLAM] | 0 | 0 | 0 | 0 | 0 | 0 | 0 | 0 | 0 | 0 | 0 | 0 | 0 | 0 | 
7 | C[C@]12CC[C@@H]3c4ccc(O)cc4CC[C@H]3[C@@H]1CC[C@@H]2O [ESTRADIOL] | 0 | 0 | 0 | 0 | 1 | 0 | 0 | 1 | 0 | 1 | 0 | 0 | 0 | 3 | 
8 | C[C@]12CC[C@@H]3c4ccc(OC(=O)N(CCCl)CCCl)cc4CC[C@H]3[C@@H]1CC[C@@H]2O [ESTRAMUSTINE] | 0 | 0 | 0 | 0 | 0 | 0 | 0 | 0 | 0 | 0 | 0 | 0 | 0 | 0 | 
9 | CC#C[C@]1(O)CC[C@H]2[C@@H]3CCc4cc(O)ccc4[C@H]3CC[C@@]21C [ESTROGEN] | 0 | 0 | 0 | 0 | 0 | 0 | 0 | 0 | 0 | 1 | 0 | 0 | 0 | 1 | 
10 | C=C(CC)C(=O)c1ccc(OCC(=O)O)c(Cl)c1Cl [ETHACRYNIC ACID] | 0 | 0 | 0 | 0 | 0 | 0 | 0 | 0 | 0 | 1 | 0 | 0 | 1 | 2 | 
11 | CC[C@@H](CO)NCCN[C@@H](CC)CO [ETHAMBUTOL] | 0 | 0 | 0 | 0 | 0 | 0 | 0 | 1 | 0 | 0 | 0 | 0 | 1 | 2 | 
12 | CCc1cc(C(N)=S)ccn1 [ETHIONAMIDE] |  |  |  |  |  |  |  |  |  |  |  |  |  |  | HepSE_bilirubinemia ([1]; Liver): 0; HepSE_cholecystitis ([2]; Liver): 0; HepSE_cholelithiasis ([3]; Liver): 0; HepSE_cirrhosis ([4]; Liver): 0; HepSE_elevated liver function tests ([5]; Liver): 0; HepSE_hepatic failure ([6]; Liver): 0; HepSE_hepatic necrosis ([7]; Liver): 0; HepSE_hepatitis ([8]; Liver): 1; HepSE_hepatomegaly ([9]; Liver): 0; HepSE_jaundice ([10]; Liver): 1; HepSE_liver disease ([11]; Liver): 0; HepSE_liver fatty ([12]; Liver): 0; HepSE_liver function tests abnormal ([13]; Liver): 0; HepSE_Combined Scores ([14]; Liver): 2
13 | CCC1(C)CC(=O)NC1=O (configuration not stated) [ETHOSUXIMIDE] | 0 | 0 | 0 | 0 | 0 | 0 | 0 | 0 | 0 | 0 | 0 | 0 | 0 | 0 | 
